We go through 1 substance from US12582727B2, “Chemiluminescent and fluorescent nanoparticle for optical imaging of cancer” (priority 2018, dated 2026).

In data set [1] the test system is liver, lungs, kidney, heart, and spleen. Kind of data set: Histology (H&E) of internal organs for toxicity. The note with it: compared to control (non-treated) group, 2 days post-intravenous injection. Format: in vivo. The method, then:
After euthanizing mice with carbon dioxide gas, the internal organs (liver, kidney, spleen, heart, and lung) and tumor tissue were extracted and photographed using IVIS imaging. In addition, tumor tissues were excised from the mice at 2 days post-intravenous injection of free-Ce6, GCCe6, FA-GCCe6, CNP and FA-CNP (0.1 mL equivalent Ce6 concentration of 1.34×10^−5 mol/kg body weight) fixed with 10% Neutral Buffered Formalin solution, and embedded in paraffin, followed by sectioning. The sliced internal organs (5 μm in thickness) were stained with hematoxylin and eosin (H&E) and observed under an optical microscope. In addition, sliced tumor tissues were determined their FL and CL imaging under a confocal laser scanning microscope (Zeusis Nikon, Tokyo, Japan).

Data set [2] relates to NOK (Normal oral keratinocyte). Briefly: Cellular uptake, NOK cells (FRα-negative). The format is cell-based. The settings on record: 1 and 3 hours of incubation, comparison among samples. The procedure: The cell internalization of CNPs was characterized by a fluorescence microscopy. As shown in FIGS. 14A and 14B, the CNPs quickly enter into NOK and MOC2 cells. […] Through the cellular uptake study, it was confirmed that CNPs efficiently enter into the cells within 1 hour.
To evaluate the cellular uptake, NOK (Normal oral keratinocyte) and MOC2 (immunogenic murine squamous cell carcinoma) cells were used as folate receptor alpha (FRα)-negative and -positive cells, respectively (FIGS. 15A and 15B).
For visualization of the cellular uptake, the NOK and MOC2 cells in each well were treated with free-Ce6, GCCe6, FA-GCCe6, CNP and FA-CNP and then subjected to DAPI staining. […] The fluorescence images matched to the corresponding data in FIGS. 15A and 15B. The enhancement of the cellular uptake is attributed to the presence of FA facilitating receptor-mediated endocytosis.

For chlorin e6 [free-Ce6], the “toxicity in H&E stained internal organs” value in data set [1] is “no significant cellular toxicity”. Also, the cellular uptake amount entry in data set [2] was “no significant difference”.
